Laboratory results from publication PMC7702137 (2020).

Legend:
[1] = system: r(CUG)9 (RNA, repeat) CUGCUGCUGCUGCUGCUGCUGCUGCUG; experiment: SPR single cycle kinetics; settings: 25 °C
[2] = system: r(CCG)9 (RNA, repeat) CCGCCGCCGCCGCCGCCGCCGCCGCCG; experiment: SPR single cycle kinetics; settings: HBS-EP+ buffer, 25 °C

| binding ([1]; HBS-EP+ buffer, 6.3-100 nM, significant response from 6.3 nM, not fitted) | binding ([2]; highest concentration tested 0.1 μM) | K d(app) ([1]; Na+ not printed for the running buffer (HBS-EP+; 500 mM NaCl only for immobilization), apparent, assumed 1:1 binding isotherm, 0.063-1.0 μM) | binding ([2]; highest concentration tested 1.0 μM) | SMILES |
| --- | --- | --- | --- | --- |
| yes | weak | – | – | NCCCNc1nc(NC(=O)OCCCNC(=O)CCNCCC(=O)NCCCOC(=O)Nc2cc3c(-c4ccnc(N5CCNCC5)c4)cccc3c(NCCCN)n2)cc2c(-c3ccnc(N4CCNCC4)c3)cccc12 |
| – | – | 1200 nM | weak | NCCCNc1nc(NC(=O)OCCCN)cc2c(-c3ccnc(N4CCNCC4)c3)cccc12 |
